Values of other authors, collected in patent US20070043030A1, “Pharmaceutical compositions for treating premature ejaculation by pulmonary inhalation” (Vectura Limited, priority 2003, published 2007).

Key:
[1] = tested on: rapid ejaculation; settings: daily oral doses of 25-50 mg
[2] = tested on: male patients with primary PE; settings: oral, 3 to 5 hours before planned intercourse, 4-week treatment period
[3] = oral formulation used for antidepressive indications
[4] = tested on: ejaculation; settings: oral administration

SMILES	efficacy in primary PE [2]	delay in ejaculation [4]	other results
CN(C)CCCN1c2ccccc2CCc2ccc(Cl)cc21 [clomipramine, 3-chloro-5-[3-(dimethylamino)-propyl]-10,11-dihydro-5H-dibenz[b,f]azepine]	comparable efficacy	–	time of peak plasma levels after dosage (oral administration): two; effect on ejaculatory latency [1]: effective in significantly lengthening ejaculatory latencies; frequency of frequently reported side effects (dry mouth, sweating, constipation, blurred vision, nausea, drowsiness, headache, dizziness) [3]: > 10%
CNCCCN1c2ccccc2CCc2ccc(Cl)cc21 [desmethylclomipramine]	–	–	plasma half-life (oral dose (clomipramine: single oral dose)): around 36 hours
CNCCC(Oc1ccc(C(F)(F)F)cc1)c1ccccc1 (centres unmarked) [fluoxetine]	–	effective in producing a delay in ejaculation	–
Fc1ccc([C@@H]2CCNC[C@H]2COc2ccc3c(c2)OCO3)cc1 [paroxetine]	comparable efficacy	effective in producing a delay in ejaculation	–
CN[C@H]1CC[C@@H](c2ccc(Cl)c(Cl)c2)c2ccccc21 [sertraline]	comparable efficacy	effective in producing a delay in ejaculation	–
CCCc1nn(C)c2c(=O)[nH]c(-c3cc(S(=O)(=O)N4CCN(C)CC4)ccc3OCC)nc12 [sildenafil]	optimal efficacy	–	–
